# Source: patent publication US10881653B2, “Tricyclic compounds and their use in the treatment of cancer” (The United States of America, as represented by the …, priority 2015, dated 2021)
# Structures can show the parent of a compound that is named as a salt. Where two headings read alike, the source gives them in different places.
# Columns and labels:
# [1] = target: T1, recombinant thioredoxin reductase 1 (TrxR1) (Homo sapiens, UniProt Q16881); test: Inhibition of recombinant TrxR1 (DTNB assay); type: biochemical
# T1 sequence (Q16881 1-649): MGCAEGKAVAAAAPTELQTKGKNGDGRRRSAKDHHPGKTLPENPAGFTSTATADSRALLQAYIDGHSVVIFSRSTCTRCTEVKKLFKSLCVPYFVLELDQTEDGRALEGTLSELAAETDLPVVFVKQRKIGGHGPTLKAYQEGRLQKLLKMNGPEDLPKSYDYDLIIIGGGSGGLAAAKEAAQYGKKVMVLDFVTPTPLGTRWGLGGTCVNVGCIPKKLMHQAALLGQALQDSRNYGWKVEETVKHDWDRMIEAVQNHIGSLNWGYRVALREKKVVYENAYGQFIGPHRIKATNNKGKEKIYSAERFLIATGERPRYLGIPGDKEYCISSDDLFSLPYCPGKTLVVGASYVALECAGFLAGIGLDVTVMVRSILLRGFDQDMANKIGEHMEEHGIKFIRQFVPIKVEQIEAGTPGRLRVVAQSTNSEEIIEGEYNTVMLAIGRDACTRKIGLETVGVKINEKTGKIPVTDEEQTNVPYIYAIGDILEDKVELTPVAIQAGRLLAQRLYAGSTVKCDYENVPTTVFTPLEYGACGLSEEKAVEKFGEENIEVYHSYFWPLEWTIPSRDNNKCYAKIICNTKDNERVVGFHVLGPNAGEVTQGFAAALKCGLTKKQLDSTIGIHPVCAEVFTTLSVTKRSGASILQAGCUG
# How it was run: (§1)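 Human TrxR1 (15 nM) or GR (2 nM) preincubated 15 min with compound, 250 μM NADPH, 0.1 mg/ml BSA in 50 mM Tris pH 7.5, 2 mM EDTA, 1% DMSO. Reaction started with 2.5 mM DTNB (TrxR1, A412) or 1 mM GSSG (GR, A340). Percent activity relative to DMSO and no-enzyme blanks.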
# [2] = target: T2, gluthathione reductase (GR) (Homo sapiens, UniProt P00390); test: Inhibition of recombinant GR (GSSG assay); type: biochemical
# T2 sequence (P00390 44-522): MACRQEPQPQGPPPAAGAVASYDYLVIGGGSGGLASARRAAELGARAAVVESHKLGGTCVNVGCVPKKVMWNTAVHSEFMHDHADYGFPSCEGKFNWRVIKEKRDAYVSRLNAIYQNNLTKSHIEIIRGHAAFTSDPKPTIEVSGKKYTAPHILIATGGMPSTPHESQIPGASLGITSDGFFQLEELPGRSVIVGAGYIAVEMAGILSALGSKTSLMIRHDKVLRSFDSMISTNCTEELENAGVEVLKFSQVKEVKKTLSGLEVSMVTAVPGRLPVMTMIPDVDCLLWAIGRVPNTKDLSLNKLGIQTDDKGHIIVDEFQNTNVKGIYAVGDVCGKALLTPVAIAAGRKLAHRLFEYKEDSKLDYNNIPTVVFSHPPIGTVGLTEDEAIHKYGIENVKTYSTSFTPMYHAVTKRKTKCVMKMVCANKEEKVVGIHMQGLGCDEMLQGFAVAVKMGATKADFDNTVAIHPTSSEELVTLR
# How it was run: as §1
# [3] = Biological Example 4, assays of Biological Example 1, read-out: TrxR Inhibition
# [4] = Biological Example 4, assays of Biological Example 1
# [5] = Biological Example 1, 15 nM TrxR1, 250 μM NADPH, 15 minutes incubation, read-out: TrxR inhibition
# [6] = Biological Example 1, 2 nM GR, 250 μM NADPH, 15 minutes incubation
"IC50 [1, 3] [µM]","IC50 [2, 4] [µM]","IC50 [1, 5] [µM]","IC50 [2, 6] [µM]",SMILES
1.64,> 100,–,–,"Cc1cccc(CN2[C@@H]3C(=O)C=C[C@H]2[C@@H]2C(=O)N(c4ccc(O)cc4)C(=O)[C@@H]23)c1 (relative stereo) [Example 55, exo-4-(4-Hydroxyphenyl)-11-(3-methylbenzyl)-4,11-diazatricyclo[5.3.1.0^2,6]-undec-9-ene-3,5,8-trione Trifluoroacetate]"
1.44,> 100,–,–,"Cc1cccc(CN2[C@@H]3C(=O)C=C[C@H]2[C@@H]2C(=O)N(c4ccccc4O)C(=O)[C@@H]23)c1 (relative stereo) [Example 56, exo-4-(2-Hydroxyphenyl)-11-(3-methylbenzyl)-4,11-diazatricyclo[5.3.1.0^2,6]-undec-9-ene-3,5,8-trione Trifluoroacetate]"
1.18,55.6,–,–,"Cc1ccc(CN2[C@@H]3C(=O)C=C[C@H]2[C@@H]2C(=O)N(c4ccccc4)C(=O)[C@@H]23)cc1 (relative stereo) [Example 4, exo-11-Methylbenzyl-4-phenyl-4,11-diazatricyclo[5.3.1.0^2,6]undec-9-ene-3,5,8-trione Trifluoroacetate]"
1.5,> 100,–,–,"Cc1ccccc1CN1[C@@H]2C(=O)C=C[C@H]1[C@@H]1C(=O)N(c3ccccc3)C(=O)[C@@H]12 (relative stereo) [Example 19, exo-11-(2-Methylbenzyl)-4-phenyl-4,11-diazatricyclo[5.3.1.0^2,6]undec-9-ene-3,5,8-trione Trifluoroacetate]"
1.63,> 100,–,–,"CCc1ccc(N2C(=O)[C@@H]3[C@H](C2=O)[C@H]2C(=O)C=C[C@@H]3N2Cc2cccc(C)c2)cc1 (relative stereo) [Example 59, exo-4-(4-Ethylphenyl)-11-(3-methylbenzyl)-4,11-diazatricyclo[5.3.1.0^2,6]-undec-9-ene-3,5,8-trione Trifluoroacetate]"
1.46,65.2,–,–,"O=C1C=C[C@H]2[C@@H]3C(=O)N(c4ccccc4)C(=O)[C@@H]3[C@@H]1N2Cc1ccc(-c2ccccc2)cc1 (relative stereo) [Example 2, exo-11-([1,1′-Biphenyl]-4-ylmethyl)-4-phenyl-4,11-diazatricyclo[5.3.1.0^2,6]-undec-9-ene-3,5,8-trione Trifluoroacetate]"
3.04,> 100,–,–,"CC(=O)Nc1ccc(N2C(=O)[C@@H]3[C@H](C2=O)[C@H]2C(=O)C=C[C@@H]3N2Cc2cccc(C)c2)cc1 (stereo in doubt) [Example 57, N-(4-(11-(3-Methylbenzyl)-3,5,10-trioxo-4,11-diazatricyclo[5.3.1.0^2,6]undec-8-en-4-yl)phenyl)acetamide Trifluoroacetate]"
1.59,91.7,–,–,"O=C1C=CC2C3C(=O)N(c4ccccc4)C(=O)C3C1N2Cc1cc(F)cc(F)c1 (stereo not drawn) [Example 43, 11-(3,5-Difluorobenzyl)-4-phenyl-4,11-diazatricyclo[5.3.1.0^2,6]undec-9-ene-3,5,8-trione Trifluoroacetate]"
3.63,> 100,–,–,"CCN1C(=O)C2C(C1=O)[C@@H]1C=CC(=O)[C@H]2N1Cc1cccc(C)c1 (mixture of isomers) [Example 48, endo-4-Ethyl-11-(3-methylbenzyl)-4,11-diazatricyclo[5.3.1.0^2,6]undec-9-ene-3,5,8-trione Trifluoroacetate]"
3.08,> 100,–,–,"CN1C(=O)C2C(C1=O)[C@@H]1C=CC(=O)[C@H]2N1Cc1ccccc1 (mixture of isomers) [Example 50, endo-11-Benzyl-4-methyl-4,11-diazatricyclo[5.3.1.0^2,6]undec-9-ene-3,5,8-trione Trifluoroacetate]"
33.3,> 100,–,–,"CC1=CC(=O)[C@@H]2[C@H]3C(=O)N(C4CCCCC4)C(=O)[C@H]3[C@H]1N2Cc1ccccc1 (relative stereo) [Example 14, exo-11-Benzyl-4-cyclohexyl-10-methyl-4,11-diazatricyclo[5.3.1.0^2,6]undec-9-ene-3,5,8-trione Trifluoroacetate]"
1.15,> 100,7.39,> 100,"Cc1cccc(CN2[C@@H]3C(=O)C=C[C@H]2[C@@H]2C(=O)N(c4ccccc4)C(=O)[C@@H]23)c1 (relative stereo) [Example 21, exo-11-(3-Methylbenzyl)-4-phenyl-4,11-diazatricyclo[5.3.1.0^2,6]undec-9-ene-3,5,8-trione Trifluoroacetate]"
1.12,23,3.09,44,"CN1[C@@H]2C(=O)C=C[C@H]1[C@@H]1C(=O)N(c3ccccc3)C(=O)[C@@H]12 (relative stereo) [Example 3, exo-11-Methyl-4-phenyl-4,11-diazatricyclo[5.3.1.0^2,6]undec-9-ene-3,5,8-trione Trifluoroacetate]"
3.83,> 100,–,–,"CS(=O)(=O)c1ccc(CN2[C@@H]3C(=O)C=C[C@H]2[C@@H]2C(=O)N(c4ccccc4)C(=O)[C@@H]23)cc1 (relative stereo) [Example 23, exo-11-(4-(Methylsulfonyl)benzyl)-4-phenyl-4,11-diazatricyclo[5.3.1.0^2,6]-undec-9-ene-3,5,8-trione Trifluoroacetate]"

SMILES,"IC50 [1, 3] [µM]","IC50 [2, 4] [µM]","IC50 [1, 5] [µM]","IC50 [2, 6] [µM]"
"O=C1C=CC2C3C(=O)N(c4ccccc4)C(=O)C3C1N2Cc1cccc(F)c1F (stereo not drawn) [Example 31, exo-11-(2,3-Difluorobenzyl)-4-phenyl-4,11-diazatricyclo[5.3.1.0^2,6]undec-9-ene-3,5,8-trione Trifluoroacetate]",1.06,> 100,–,–
"O=C1C=CC2C3C(=O)N(c4ccccc4)C(=O)C3C1N2Cc1cccc(Cl)c1 (stereo not drawn) [Example 41, endo-11-(3-Chlorobenzyl)-4-phenyl-4,11-diazatricyclo[5.3.1.0^2,6]undec-9-ene-3,5,8-trione Trifluoroacetate]",2.35,49.5,–,–
